The values below come from ChEMBL document CHEMBL5532761, “Rosavin improves insulin resistance and alleviates hepatic and kidney damage via modulating the cGAS-STING pathway and autophagy signaling in HFD/STZ-induced T2DM animals” (2024).

Test [1] relates to Rattus norvegicus. Nature of the test: Antidiabetic activity in high fat diet-STZ induced diabetic Wistar rat model assessed as binucleated cells in liver at 30 mg/kg, ip pretreated with high fat diet for 4 weeks followed by 8 hrs fasting after STZ administration and measured 4 weeks after compound treatment by hematoxylin and eosin staining based microscopic analysis. The test is classed as functional, organism-based.

In test [2] the test system is Rattus norvegicus. Nature of the test: Antidiabetic activity in high fat diet-STZ induced diabetic Wistar rat model assessed as insulin level in serum at 10 mg/kg, ip pretreated with high fat diet for 4 weeks followed by 8 hrs fasting after STZ administration and measured 4 weeks after compound treatment by ELISA (reference value: 16.53 +/- 1.14 microU/ml). In kind it is functional. For orientation: An ELISA detects its analyte on a solid surface through an enzyme-linked reagent.

Test [3] concerns Rattus norvegicus. As to the kind of experiment: Antidiabetic activity in high fat diet-STZ induced diabetic Wistar rat model assessed as mean area percentage of TNFalpha in kidney at 10 mg/kg, ip pretreated with high fat diet for 4 weeks followed by 8 hrs fasting after STZ administration and measured after 4 weeks of compound treatment by immunohistochemistry based microscopic analysis (reference value: 24 +/- 1.5 %). In kind it is functional.

The subject of test [4] is Rattus norvegicus. As to the kind of experiment: Antidiabetic activity in high fat diet-STZ induced diabetic Wistar rat model assessed as reduction in inflammatory infiltrates in kidney at 20 mg/kg, ip pretreated with high fat diet for 4 weeks followed by 8 hrs fasting after STZ administration and measured 4 weeks after compound treatment by hematoxylin and eosin staining based microscopic analysis. In kind it is functional, organism-based.

Test [5] relates to Rattus norvegicus. Nature of the test: Antidiabetic activity in high fat diet-STZ induced diabetic Wistar rat model assessed as reduction in degenerative changes in liver at 30 mg/kg, ip pretreated with high fat diet for 4 weeks followed by 8 hrs fasting after STZ administration and measured 4 weeks after compound treatment by hematoxylin and eosin staining based microscopic analysis. The test is classed as functional, organism-based.

Test [6] relates to Rattus norvegicus. As to the kind of experiment: Antidiabetic activity in high fat diet-STZ induced diabetic Wistar rat model assessed as mean area percentage of TNF alpha in liver at 10 mg/kg, ip pretreated with high fat diet for 4 weeks followed by 8 hrs fasting after STZ administration and measured after 4 weeks of compound treatment by immunohistochemistry based microscopic analysis (reference value: 18.28 +/- 1.31 %). In kind it is functional.

The subject of test [7] is Rattus norvegicus. Nature of the test: Antidiabetic activity in high fat diet-STZ induced diabetic Wistar rat model assessed as ALT level at 20 mg/kg, ip pretreated with high fat diet for 4 weeks followed by 8 hrs fasting after STZ administration and measured 4 weeks after compound treatment (reference value: 152.1 +/- 23.64 IU/L). In kind it is functional.
The subject of test [8] is Rattus norvegicus. Nature of the test: Antidiabetic activity in high fat diet-STZ induced diabetic Wistar rat model assessed as protection against diffuse hepatocellular microvesicular steatosis at 10 mg/kg, ip pretreated with high fat diet for 4 weeks followed by 8 hrs fasting after STZ administration and measured 4 weeks after compound treatment by hematoxylin and eosin staining based microscopic analysis. In kind it is functional, organism-based.

Test [9] has as its system Rattus norvegicus. As to the kind of experiment: Antidiabetic activity in high fat diet-STZ induced diabetic Wistar rat model assessed as organized histological features of hepatic parenchyma at 30 mg/kg, ip pretreated with high fat diet for 4 weeks followed by 8 hrs fasting after STZ administration and measured 4 weeks after compound treatment by hematoxylin and eosin staining based microscopic analysis. The test is classed as functional, organism-based.

The test system of test [10] is Rattus norvegicus. As to the kind of experiment: Antidiabetic activity in high fat diet-STZ induced diabetic Wistar rat model assessed as LDL-cholesterol level at 10 mg/kg, ip pretreated with high fat diet for 4 weeks followed by 8 hrs fasting after STZ administration and measured 4 weeks after compound treatment (reference value: 6.54 +/- 0.918 mmol/L). In kind it is functional.

For test [11], the system named is Rattus norvegicus. Nature of the test: Antidiabetic activity in high fat diet-STZ induced diabetic Wistar rat model assessed as ALT level at 10 mg/kg, ip pretreated with high fat diet for 4 weeks followed by 8 hrs fasting after STZ administration and measured 4 weeks after compound treatment (reference value: 152.1 +/- 23.64 IU/L). In kind it is functional.
For test [12], the system named is Rattus norvegicus. Nature of the test: Antidiabetic activity in high fat diet-STZ induced diabetic Wistar rat model assessed as increase in AC074117.2 lncRNA expression in kidney at 10 to 30 mg/kg, ip pretreated with high fat diet for 4 weeks followed by 8 hrs fasting after STZ administration and measured 4 weeks after compound treatment by RT-qPCR analysis. The test is classed as functional, organism-based. To be noted: dose 10-30 mg/kg. A general note: Real-time PCR tracks product formation cycle by cycle.

In test [13] the test system is Rattus norvegicus. Nature of the test: Antidiabetic activity in high fat diet-STZ induced diabetic Wistar rat model assessed as glucose level in serum at 10 mg/kg, ip pretreated with high fat diet for 4 weeks followed by 8 hrs fasting after STZ administration and measured 4 weeks after compound treatment (reference value: 527.7 +/- 49.1 mg%). The test is classed as functional.

Test [14] concerns Rattus norvegicus. As to the kind of experiment: Antidiabetic activity in high fat diet-STZ induced diabetic Wistar rat model assessed as reduction in inflammatory infiltrates in kidney at 30 mg/kg, ip pretreated with high fat diet for 4 weeks followed by 8 hrs fasting after STZ administration and measured 4 weeks after compound treatment by hematoxylin and eosin staining based microscopic analysis. The test is classed as functional, organism-based.

Test [15] deals with Rattus norvegicus. As to the kind of experiment: Antidiabetic activity in high fat diet-STZ induced diabetic Wistar rat model assessed as HOMA-IR level at 20 mg/kg, ip pretreated with high fat diet for 4 weeks followed by 8 hrs fasting after STZ administration and measured 4 weeks after compound treatment (reference value: 21.51 +/- 2.17). The test is classed as functional.

Test [16] relates to Rattus norvegicus. As to the kind of experiment: Antidiabetic activity in high fat diet-STZ induced diabetic Wistar rat model assessed as cholesterol level at 30 mg/kg, ip pretreated with high fat diet for 4 weeks followed by 8 hrs fasting after STZ administration and measured 4 weeks after compound treatment (reference value: 10.39 +/- 1.3 mmol/L). The test is classed as functional.

The subject of test [17] is Rattus norvegicus. Nature of the test: Antidiabetic activity in ip dosed high fat diet-STZ induced diabetic Wistar rat model assessed as reduction of STING mRNA expression in liver pretreated with high fat diet for 4 weeks followed by 8 hrs fasting after STZ administration and measured 4 weeks after compound treatment by RT-qPCR analysis. The test is classed as functional, organism-based. The settings on record: dose 10-30 mg/kg.

The subject of test [18] is Rattus norvegicus. As to the kind of experiment: Antidiabetic activity in high fat diet-STZ induced diabetic Wistar rat model assessed as triglyceride level at 10 mg/kg, ip pretreated with high fat diet for 4 weeks followed by 8 hrs fasting after STZ administration and measured 4 weeks after compound treatment (reference value: 17.05 +/- 0.803 mmol/L). The test is classed as functional.

Test [19] concerns Rattus norvegicus. As to the kind of experiment: Antidiabetic activity in ip dosed high fat diet-STZ induced diabetic Wistar rat model assessed as reduction of ZBP1 mRNA expression in liver pretreated with high fat diet for 4 weeks followed by 8 hrs fasting after STZ administration and measured 4 weeks after compound treatment by RT-qPCR analysis. In kind it is functional, organism-based. To be noted: dose 10-30 mg/kg.

The subject of test [20] is Rattus norvegicus. As to the kind of experiment: Antidiabetic activity in high fat diet-STZ induced diabetic Wistar rat model assessed as insulin level in serum at 30 mg/kg, ip pretreated with high fat diet for 4 weeks followed by 8 hrs fasting after STZ administration and measured 4 weeks after compound treatment by ELISA (reference value: 16.53 +/- 1.14 microU/ml). In kind it is functional.

Test [21] relates to Rattus norvegicus. As to the kind of experiment: Antidiabetic activity in high fat diet-STZ induced diabetic Wistar rat model assessed as glucose level in serum at 30 mg/kg, ip pretreated with high fat diet for 4 weeks followed by 8 hrs fasting after STZ administration and measured 4 weeks after compound treatment (reference value: 527.7 +/- 49.1 mg%). The test is classed as functional.

In test [22] the test system is Rattus norvegicus. Nature of the test: Antidiabetic activity in high fat diet-STZ induced diabetic Wistar rat model assessed as mean area percentage of TNF alpha in liver at 20 mg/kg, ip pretreated with high fat diet for 4 weeks followed by 8 hrs fasting after STZ administration and measured after 4 weeks of compound treatment by immunohistochemistry based microscopic analysis (reference value: 18.28 +/- 1.31 %). In kind it is functional.

Test [23] relates to Rattus norvegicus. Nature of the test: Antidiabetic activity in high fat diet-STZ induced diabetic Wistar rat model assessed as blood urea nitrogen level at 30 mg/kg, ip pretreated with high fat diet for 4 weeks followed by 8 hrs fasting after STZ administration and measured 4 weeks after compound treatment (reference value: 466.4 +/- 51.16 mg%). In kind it is functional.

Active and inactive are the calls of the source. No cut-off for these calls is given here.

`O[C@@H]1[C@@H](O)[C@H](OC/C=C/c2ccccc2)O[C@H](CO[C@@H]2OC[C@H](O)[C@H](O)[C@H]2O)[C@H]1O`: the result with Rattus norvegicus [1], with Rattus norvegicus [4], with Rattus norvegicus [5], in the test with Rattus norvegicus [9], with Rattus norvegicus [12] and in the test with Rattus norvegicus [14] was Active. Moreover, the Activity worked out at 13.88 uU/ml with Rattus norvegicus [2]; 16.98% with Rattus norvegicus [3]; 11.3% with Rattus norvegicus [6]; 42.38 IU/L in the test on Rattus norvegicus [7]; 3.19 mmol/L with Rattus norvegicus [10]; 79.5 IU/L with Rattus norvegicus [11]. Also, the Activity in the test with Rattus norvegicus [13] was 227.7 mg%; in the test on Rattus norvegicus [15], 2.76; with Rattus norvegicus [16] it was 3.15 mmol/L; in the test with Rattus norvegicus [17], “Dose-Dependent Effect”; in the test with Rattus norvegicus [18], 8.52 mmol/L; in the test on Rattus norvegicus [19] it was “Dose-Dependent Effect”. Moreover, the Activity with Rattus norvegicus [20] was 5.64 uU/ml; with Rattus norvegicus [21], 123.9 mg%; with Rattus norvegicus [22], 8.75%; with Rattus norvegicus [23], 172.3 mg%. For the same compound, the outcome in the test with Rattus norvegicus [8] was inactive.
